{"source": "patent US11384109B2", "about": "“Method for separating phenolic acid glucoside compounds from Diaphragma juglandis Fructu” (Jiangnan University, priority 2020, dated 2022)", "key": {"[1]": {"system": "aging model mice induced by D-galactose", "assay": "Antioxidant effects in subacute aging model mice induced by D-galactose (serum SOD by ELISA, liver MDA by colorimetry)", "format": "in vivo, ICR mice", "conditions": "500 mg/kg by gavage for 6 weeks; for Liver MDA / Serum SOD: 150 mg/kg D-galactose s.c., 24 hours after last administration, x ± s, 10 mice per group; for Liver MDA: 10% liver homogenate; for liver MDA content compared with the model group / serum SOD activity compared with the model group: result in words, One-way ANOVA Dunnett test", "description": "1.1 Animals: ICR mice, 6 weeks old, 20-25 g, SPF grade, purchased from Shanghai Slack Experimental Animal Co., Ltd.\n1.2 Reagents: D-galactose, purchased from Sigma, USA; malondialdehyde (MDA) kit, purchased from Nanjing Jiancheng Bioengineering Institute; superoxide dismutase (SOD) kit, purchased from Shanghai Aisalai Eliza Biotechnology Co., Ltd.\n2.1 Animal grouping and administration: after one week of adaptive feeding, mice were randomly divided into 5 groups, 10 mice each group. The administration group was gavaged with Compounds 1-3, 500 mg/kg per compound. The blank group and aging model group were gavaged with equal volume of normal saline for 6 weeks. At the same time, 150 mg/kg D-galactose was injected subcutaneously into the aging model group and the administration group respectively to establish a subacute aging model of mice. The blank control group was injected with equal volume of normal saline for 6 weeks.\n2.2 Sample preparation and index determination: 24 hours after the last administration, blood was collected from the eyeballs of mice; after dislocation for execution, the liver was removed, cleaned and ground at low temperature to prepare 10% tissue homogenate, which was centrifuged at 3500 rpm and 4° C. for 10 min, and supernatant was taken and stored at −20° C. The content of MDA in the liver tissue was determined by colorimetry, and the activity of SOD in serum was determined by ELISA.\n2.3 Statistical analysis: the results were expressed as x±s. The results were analyzed by One-way ANOVA Dunnett test using SPSS 20 software."}, "[2]": {"assay": "Solubility description of the isolated compounds"}}, "note": "Marks after values point to notes of the source that are not given here."}
{"molecule": "2,6-dihydroxynaphthyl-O-β-D-glucopyranoside [Compound 3]", "values": [{"measurement": "Liver MDA", "setting": "[1]", "result": "0.183 ± 0.051^a nmol/mg tissue"}, {"measurement": "Serum SOD", "setting": "[1]", "result": "103.44 ± 15.75^a U/mL"}, {"measurement": "liver MDA content compared with the model group", "setting": "[1]", "result": "significantly (P<0.05) lower than that in the model group"}, {"measurement": "serum SOD activity compared with the model group", "setting": "[1]", "result": "significantly (P<0.05) higher than that in the model group"}, {"measurement": "solubility in chloroform", "setting": "[2]", "result": "insoluble"}, {"measurement": "solubility in water, ethanol and the like", "setting": "[2]", "result": "soluble"}]}
{"molecule": "COc1ccc(O)c(O[C@@H]2O[C@H](CO)[C@@H](O)[C@H](O)[C@H]2O)c1", "note": "[Compound 1, 2-hydroxyl-5-methoxylphenyl-O-β-D-glucopyranoside]", "values": [{"measurement": "Liver MDA", "setting": "[1]", "result": "0.211 ± 0.019^a nmol/mg tissue"}, {"measurement": "Serum SOD", "setting": "[1]", "result": "94.90 ± 8.07^a U/mL"}, {"measurement": "liver MDA content compared with the model group", "setting": "[1]", "result": "significantly (P<0.05) decreased"}, {"measurement": "serum SOD activity compared with the model group", "setting": "[1]", "result": "significantly (P<0.05) increased"}, {"measurement": "solubility in chloroform", "setting": "[2]", "result": "insoluble"}, {"measurement": "solubility in water, ethanol and the like", "setting": "[2]", "result": "soluble"}]}
{"molecule": "OC[C@H]1O[C@@H](Oc2ccc3cc(O)ccc3c2O[C@@H]2O[C@H](CO)[C@@H](O)[C@H](O)[C@H]2O)[C@H](O)[C@@H](O)[C@@H]1O", "note": "[Compound 2, 6-hydroxylnaphthyl-1,2-di-O-β-D-glucopyranoside]", "values": [{"measurement": "Liver MDA", "setting": "[1]", "result": "0.198 ± 0.037^a nmol/mg tissue"}, {"measurement": "Serum SOD", "setting": "[1]", "result": "97.06 ± 10.18^a U/mL"}, {"measurement": "liver MDA content compared with the model group", "setting": "[1]", "result": "significantly (P<0.05) decreased"}, {"measurement": "serum SOD activity compared with the model group", "setting": "[1]", "result": "significantly (P<0.05) increased"}]}
